Values after ≈ are worked out from the molar mass of the structure shown. Where a SMILES comes first, the peptide text is derived from it. Bridges are numbered along the chain shown (N, C = ends). [ ]: non-standard residue; d: D form. The star is where a group is joined. Ileψ(thiazoline)Cys = CC[C@H](C)[C@H](N)C1=N[C@H](C(=O)*)CS1; dOrn = NCCC[C@@H](N)C(=O)O
What was measured:
[1] = tested on: S. typhimurium KCTC 2515; assay: Checker board synergy evaluation (MIC, FICI); format: cell-based, Salmonella typhimurium; conditions: Salmonella enterica, 24 h; strain 2515; single agent
Method: Interactions of the selected antibiotic or 7,10-EODA of the present invention were evaluated using the checker board method (Nair et al. 2015). […] To obtain various concentrations of 7,10-EODA and antibiotic combination, a 2-fold dilution of the beta-lactam antibiotic was placed on the same plate. About 10^5 CFU/mL of microorganisms to be tested was added to the wells of each plate, and cultured for 24 hours at 37° C. without shaking. At the end of the culture period, cell growth was measured at OD600 using a spectrophotometer. Each 7,10-EODA and antibiotic combination was repeated at least three times. MIC was identified at the lowest concentration of antibiotics with growth inhibition of 90% or higher. FICAB means fractional inhibitory concentration (FIC) of drug A in the presence of drug B, and FICBA means fractional inhibitory concentration (FIC) of drug B in the presence of drug A. The fractional inhibitory concentration index (FICI) represents the sum of the FIC values of the interacting antibiotics. Interactions are based on FICI values, with FICIs less than 0.5 being categorized as synergy, FICIs 0.5 to 4 being indifferent, and FICIs greater than 4 being antagonistic. The degree of synergy was also measured based on the conventional Bliss independence model of synergy (Morones-Ramirez et al. 2013). Specifically, the degree of synergy was calculated by the following equation: S indicates degree of synergy, fAB indicates bacterial growth (optical density) when 7,10-EODA and antibiotics are used in combination, fA0 and f0B represent bacterial growth for antibiotic alone or 7,10-EODA single treatment, respectively. f00 represents bacterial growth in the absence of drug. The degree of synergy is divided into three categories based on the S value, where 0 means neutral, greater than 0 means synergism, and less than 0 means antagonism. S=(fA0/f00)(f0B/f00)−(fAB/f00) […]

[2] = tested on: MRSA strain 136; assay: Checker board synergy evaluation (MIC, FICI); format: cell-based; conditions: Staphylococcus aureus, 24 h, strain 136, single agent, read-out: MIC
Method: (§1) Interactions of the selected antibiotic or 7,10-EODA of the present invention were evaluated using the checker board method (Nair et al. 2015). […] To obtain various concentrations of 7,10-EODA and antibiotic combination, a 2-fold dilution of the beta-lactam antibiotic was placed on the same plate. About 10^5 CFU/mL of microorganisms to be tested was added to the wells of each plate, and cultured for 24 hours at 37° C. without shaking. At the end of the culture period, cell growth was measured at OD600 using a spectrophotometer. Each 7,10-EODA and antibiotic combination was repeated at least three times. MIC was identified at the lowest concentration of antibiotics with growth inhibition of 90% or higher. FICAB means fractional inhibitory concentration (FIC) of drug A in the presence of drug B, and FICBA means fractional inhibitory concentration (FIC) of drug B in the presence of drug A. The fractional inhibitory concentration index (FICI) represents the sum of the FIC values of the interacting antibiotics. Interactions are based on FICI values, with FICIs less than 0.5 being categorized as synergy, FICIs 0.5 to 4 being indifferent, and FICIs greater than 4 being antagonistic. The degree of synergy was also measured based on the conventional Bliss independence model of synergy (Morones-Ramirez et al. 2013). Specifically, the degree of synergy was calculated by the following equation: S indicates degree of synergy, fAB indicates bacterial growth (optical density) when 7,10-EODA and antibiotics are used in combination, fA0 and f0B represent bacterial growth for antibiotic alone or 7,10-EODA single treatment, respectively. f00 represents bacterial growth in the absence of drug. The degree of synergy is divided into three categories based on the S value, where 0 means neutral, greater than 0 means synergism, and less than 0 means antagonism. S=(fA0/f00)(f0B/f00)−(fAB/f00)
(§2) The antimicrobial activity synergistic effects according to the combination treatment of 7,10-EODA and each antibiotic on methicillin-resistant Staphylococcus aureus (MRSA) strains 085, 093, 120, 136, and 165, MDRSA 01ST001, which is a multidrug-resistant Staphylococcus aureus (MDRSA) strain, E. coli ATCC 8739, and S. typhimurium KCTC 2515 were confirmed. […] Fractional inhibitory concentration indices (FICI) values accordingly were confirmed.

[3] = tested on: E. coli ATCC 8739; assay: Checker board synergy evaluation (MIC, FICI); format: cell-based; conditions: Escherichia coli, ATCC8739, 24 h; strain 8739; single agent
Method: as §1, §2

[4] = tested on: MRSA strain 085; assay: Checker board synergy evaluation (MIC, FICI); format: cell-based; conditions: Staphylococcus aureus, 24 h, strain 085, single agent, read-out: MIC
Method: as §1, §2

[5] = tested on: MRSA strain 120; assay: Checker board synergy evaluation (MIC, FICI); format: cell-based; conditions: Staphylococcus aureus, 24 h, strain 120, single agent, read-out: MIC
Method: as §1, §2

[6] = tested on: MRSA strain 093; assay: Checker board synergy evaluation (MIC, FICI); format: cell-based; conditions: Staphylococcus aureus, 24 h, strain 093, single agent, read-out: MIC
Method: as §1, §2

[7] = tested on: MDRSA 01ST001; assay: Checker board synergy evaluation (MIC, FICI); format: cell-based; conditions: Staphylococcus aureus, 24 h; strain 001; single agent
Method: as §1, §2

[8] = tested on: MRSA strain 165; assay: Checker board synergy evaluation (MIC, FICI); format: cell-based; conditions: Staphylococcus aureus, 24 h, strain 165, single agent, read-out: MIC
Method: as §1, §2

[9] = tested on: MRSA 01ST001 (MDRSA 01ST001); assay: Antimicrobial activity on solid medium (clear zone around filter paper); format: cell-based, Staphylococcus aureus
Method: (§3) First, 1.5% of potato agar was added to the YDP medium, sterilized, and then an agar plate hardened by pouring about 20 ml in a plastic Petri dish was used. MRSA 01ST001 was diluted to about 107/ml, and then about 500 μl was dispersed evenly on the agar plate.
(§4) The size of the clear zone around the filter paper shown after the culture at 37° C. for 2 to 3 days after the inoculation was measured to confirm the degree of antimicrobial activity. At this time, vancomycin 100 μg, oxacillin 100 μg, ampicillin 100 μg, streptomycin 100 μg, and penicillin 100 μg were used as control groups.
(§5) The antimicrobial activity can be confirmed with the degree showing the clear zone on the agar plate. It is judged that the larger the clear zone, the higher the antimicrobial activity. The results are illustrated in FIG. 1 and FIG. 2.
(§6) The results are illustrated in FIG. 3. The experiment was carried out in the same manner as in Example 1-2.

[10] = tested on: Staphylococcus aureus ATCC 29213; assay: as above; format: cell-based; conditions: FIG. 3
Method: as §3, §4, §5, §6

[11] = tested on: MDRSA 01ST001; assay: Agar disk diffusion analysis, zone of inhibition (ZOI); format: cell-based, Staphylococcus aureus
Method: (§7) For synergy effect screening, a 0.1 mL aliquot of MRSA or MSSA strain (5×10^5 CFU/mL) cultured in a log-phase on TSA plates was inoculated. […] A disk including DMSO alone or 7,10-EODA alone (¼×MIC) was used as a control group. The plates were cultured under conditions of […] and 24 hours, and a synergistic effect was observed when the disk periphery including both antibiotic and 7,10-EODA was at least 5 mm in zone of inhibition (ZOI).
Specifically, in order to compare the antimicrobial activity of the 7,10-EODA or the antibiotic of the present invention against the MDRSA 01ST001 strain, the MDRSA 01ST001 strain was treated with the 7,10-EODA (E 100 μg) of the present invention, streptomycin (S, 100 μg), ampicillin (A, 100 μg), oxacillin (O, 100 μg), vancomycin (V, 100 μg), or penicillin (P, 100 μg), according to the method described in Experimental Example 5.
(§8) Specifically, the minimal inhibitory concentration (MIC) was measured according to the method of Experimental Example 4 above, and the degree of inhibition (Agar diffusion analysis) (zone of inhibition; ZOI) was measured according to the method of Experimental Example 5 above.

[12] = tested on: Staphylococcus aureus ATCC 29213; assay: as above; format: cell-based; conditions: strain 29213
Method: as §7, §8

[13] = tested on: MDRSA 01ST001; assay: Minimal inhibitory concentration (MIC), broth microdilution per CLSI; conditions: Staphylococcus aureus
[14] = tested on: Staphylococcus aureus ATCC 29213; assay: as above; format: cell-based; conditions: Staphylococcus aureus, ATCC29213; strain 29213 (ATCC 29213); antibiotic alone; read-out: MIC
Method: The minimum inhibitory concentration (MIC) of antibiotics and the activity of 7,10-EODA of the present invention against Staphylococcus aureus strains were measured according to the CLSI guideline (CLSI document M100-517, 2007). Specifically, each antibiotic or 7,10-EODA was diluted 2-fold (200-0.97 μg/mL) by adding MHB (Mueller-Hinton Broth) to a 96-well microtiter plate. In the mid-exponential phase (0.5 OD600), the culture was diluted 10-fold with MHB and 0.1 mL aliquots of the diluent were added to wells containing the serially diluted test reagent and cultured at 37° C. for 12 hours. About the end of the culture period, the cell density was measured at an optical density of 600 nm (OD600) using a […].
as §8

[15] = tested on: MDRSA 01ST001; assay: Degree of synergy (Bliss independence model); format: cell-based, Staphylococcus aureus; conditions: antibiotic ¼×MIC in combination with 7,10-EODA 15.6 μg/mL (⅛×MIC), 24 hours
Method: as §1
(§9) The results are illustrated in FIG. 10. […]

[16] = tested on: MRSA 01ST018; assay: Degree of synergy (Bliss independence model); format: cell-based, Staphylococcus aureus; conditions: antibiotic ¼×MIC in combination with 7,10-EODA 15.6 μg/mL (⅛×MIC); 24 hours; MRSA 018
Method: as §1, §9

Molecule: Cc1onc(-c2ccccc2)c1C(=O)N[C@@H]1C(=O)N2[C@@H]1SC(C)(C)[C@@H]2C(=O)O [OXA, oxacillin]
- MIC [1]: 250 µg/mL
- MIC [2]: 62.5 µg/mL
- MIC [3]: 200 µg/mL
- MIC [4]: 250 µg/mL
- MIC [5]: 250 µg/mL
- MIC [6]: 2000 µg/mL
- MIC [7]: 62.5 µg/mL
- MIC [8]: 31.2 µg/mL
- clear zone on agar plate ([9]; 100 μg per filter paper, 37° C., 2 to 3 days, FIG. 1): no clear zone appeared
- antimicrobial activity on solid medium ([9]; MDRSA 01ST001, FIG. 3): did not show an antimicrobial activity
- antimicrobial activity on solid medium [10]: high antimicrobial activity
- antimicrobial activity, disk diffusion ([11]; 100 μg each, FIG. 4): resistant
- antimicrobial activity effect in combination with 7,10-EODA ([11]; antibiotic treated in combination with 7,10-EODA, Table 1 summary): strong antimicrobial activity effect
- ZOI without 7.10-EODA ([11]; strain 001, antibiotic ½×MIC alone): 6.0 ± 0.1 mm
- ZOI with 7.10-EODA ([11]; strain 001, antibiotic ½×MIC with 7,10-EODA ¼×MIC): 14.1 mm
- ZOI without 7.10-EODA ([12]; antibiotic ½×MIC alone): 8.3 ± 0.1 mm
- ZOI with 7.10-EODA ([12]; antibiotic ½×MIC with 7,10-EODA ¼×MIC): 9.60 mm
- MIC [13]: 62.5 µg/mL (≈ 156 µM)
- MIC [14]: 0.04 µg/mL (≈ 0.0996 µM)

Molecule: CC[C@H](C)[C@H](N)C1=N[C@H](C(=O)N[C@@H](CC(C)C)C(=O)N[C@H](CCC(=O)O)C(=O)N[C@H](C(=O)N[C@H]2CCCCNC(=O)[C@H](CC(N)=O)NC(=O)[C@@H](CC(=O)O)NC(=O)[C@H](Cc3cnc[nH]3)NC(=O)[C@@H](Cc3ccccc3)NC(=O)[C@H]([C@@H](C)CC)NC(=O)[C@@H](CCCN)NC2=O)[C@@H](C)CC)CS1 [bacitracin] ({Ileψ(thiazoline)Cys}-L[dE]IK[dOrn]I[dF]H[dD]N; lactam 4-C)
- synergy index [15]: 0.8

Molecule: gentamicin
- synergy index [16]: 1.32
- synergy index [15]: 1.37
